According to US9610331B2, “Methods for hematopoietic precursor mobilization” (Yeda Research and Development Co. Ltd., priority 2009, dated 2017):
Ends that are not written are not given here. * marks the point of attachment. Palmitoyl = CCCCCCCCCCCCCCCC(=O)*

Columns and labels:
CD34+ cells = conditions: cited from earlier work
C57BL mice = test: G-CSF induced splenomegaly (spleen weight) in C57BL mice; assay type: in vivo
Procedure: All animals were maintained under conditions approved by the Institutional Animal Care and Use Committee at the Weizmann Institute. The study protocol was approved by the ethics committees at Weizmann Institute. In these experiments, 8 to 10 week old immune competent C57BL mice were used. All mice were kept in small cages (up to five animals per cage) and fed sterile food.
Mice were treated by daily subcutaneous injections of recombinant human G-CSF (Neupogen, Amgen) at a dose of 250 μg per kg per day for 7 days. To determine the spleen weight, mice were euthanized and spleens were harvested 7 days after the initiation of G-CSF treatment.
Dabigatran etexilate (Boehringer Ingelheim Pharma KG, Biberach, Germany) was administered orally at a dosage of 30 mg/kg. A final volume of 0.3 ml dissolved in DDW was administered daily.
The palmitoylated peptides: pal-RCLSSSAVANRS (PAR1 antagonist, SEQ ID NO: 1) and pal-SGRRYGHALR (PAR4 antagonist, SEQ ID NO: 2) were prepared by solid-phase peptide synthesis using in situ neutralization/HBTU by Hadar Biotec, Israel. The mice were treated by vehicle control, or with PAR1 antagonist or PAR4 antagonist at 0.5 mg/kg, intraperitoneally on daily basis.

spleen cells = test: Cellular composition of spleen by flow cytometry; assay type: in vivo, mouse; conditions: for B cells (B220) / Granulocytes (Gr-1) / Macrophages (CD11b) / T cells (CD3): spleen, C57BL mice, 7 days treatment, mean ± SD
Procedure: (§1) Membrane expression of different molecules on mouse bone marrow (BM) and spleen cells was detected by flow cytometry, using one- or two-step staining procedures.
(§2) Cellular composition of the hematopoietic compartment was stained by CD3-FITC, B220-PE, CD-11b allophycocyanin and Gr-1 FITC ((Pharmigen, BD).
(§3) After staining, cells were washed and analyzed LSRII (Becton Dickinson) using FlowJo software.
(§4) Comparisons between the different groups were evaluated using the Student's test. Data were expressed as mean±SD, and were considered statistically significant at p values of 0.05 or less.

Lin−Kit+Sca+ stem cell = test: Lin-Kit+Sca+ stem cell numbers in blood, spleen and BM by FACS; assay type: in vivo, mouse; conditions: FIG. 4
From the text: Membrane expression of different molecules on mouse bone marrow (BM), spleen and peripheral blood (PB) mononuclear cells (MNCs) was detected by flow cytometry, using one- or two-step staining procedures.
Cells were stained for lineage negative Lin− (CD3, B220, CD11b, Gr-1 and Ten-119 were biotinilated and detected by strepavidine Pe-Cy7), stem cell factor receptor positive (c-kit allophycocyanin+), stem cell antigen-1 positive (Sca-1 PE+) using Pharmigen, BD.
After staining, cells were washed and analyzed on LSRII (Becton Dickinson) using FlowJo software.
as §4

[1] = tested on: hematopoietic progenitors; test: Colony-forming assay of spleen cells (CFU/spleen); assay type: in vivo, mice; conditions: for precursor mobilization (CFU/spleen), enhancement as compared to non-treated mice: antagonist added to G-CSF treatment; for circulating CFU/spleen compared with C57BL/6 mice: at 7 days after G-CSF treatment, P<0.05 vs C57BL/6 (n=5), FIG. 3 legend
Procedure: All animals were maintained under conditions approved by the Institutional Animal Care and Use Committee at the Weizmann Institute. The study protocol was approved by the ethics committees at Weizmann Institute. In these experiments, 8 to 10 week old immune competent C57BL mice and C57BL hemophilic (C57BL Hem F8) mice were used. All mice were kept in small cages (up to five animals per cage) and fed sterile food. Cells were plated in 0.9% methylcellulose (Sigma Chemical Co.), 30% FCS, DMEM medium (Sigma Chemical Co.), 50 ng/ml stem cell factor (SCF), 5 ng/ml IL-3 (R&D Systems Inc.), 5 ng/ml GM-CSF (R&D Systems Inc.), and 2 U/ml erythropoietin (EPO; Orto Bio Tech, Don Mills, Ontario, Canada). Total spleen cells 5×10^5 were seeded in semisolid cultures. Colonies were scored 7 days later under an inverted microscope (CK2; Olympus), applying morphological criteria. To study the role of thrombin in the mobilization of hematopoietic progenitors, inventors enumerated these cells by their ability to form colonies in semi-solid media. Thus, after 7 days of treatment with G-CSF with or without PAR antagonists, the number of hematopoietic progenitors in the spleen was estimated by plating the low density mononuclear cells in methylcellulose containing appropriate nutrients and growth factors (see materials and experimental procedures, above). The plates were incubated for 7 days and the colonies were scored using a low magnification microscope. The number of progenitors mobilized into the spleen was presented as CFU/spleen (FIG. 3). […] However, the addition of PAR1 or PAR4 antagonists to G-CSF treatment led to further enhancement of precursor mobilization by 15.3 and 6.4 fold, respectively (as compared to non-treated mice). Likewise, in Factor VIII knock out (KO) mice, which have low thrombin levels due to the absence of Factor VIII, an enhancement of spleen colonies by a factor of 15.9 was recorded upon treatment with G-CSF.

bone marrow (BM) cells = test: Cellular composition of bone marrow by flow cytometry; assay type: in vivo, mouse; conditions: for B cells (B220) / Granulocytes (Gr-1) / Macrophages (CD11b) / T cells (CD3): bone marrow, C57BL mice, 7 days treatment, mean ± SD
Procedure: as §1, §2, §3, §4

HSPC = conditions: after a single injection; cited from earlier work
C57BL/6 mice = conditions: 7 day daily G-CSF treatment of C57BL/6 mice; cited from earlier work
[2] = with G-CSF for 7 days, antagonist 0.5 mg/kg intraperitoneally daily, FIG. 2

Molecule	B cells (B220) (spleen cells) [%]	Granulocytes (Gr-1) (spleen cells) [%]	Macrophages (CD11b) (spleen cells) [%]	T cells (CD3) (spleen cells) [%]	G-CSF induced splenomegaly (C57BL mice; [2])	precursor mobilization (CFU/spleen), enhancement as compared to non-treated mice ([1]; 7 days, C57BL mice, FIG. 3) [fold]	circulating CFU/spleen compared with C57BL/6 mice [1]	B cells (B220) (bone marrow (BM) cells) [%]	Granulocytes (Gr-1) (bone marrow (BM) cells) [%]	Macrophages (CD11b) (bone marrow (BM) cells) [%]	T cells (CD3) (bone marrow (BM) cells) [%]	other results
c1cc(CN2CCCNCCNCCCNCC2)ccc1CN1CCCNCCNCCCNCC1 [AMD3100]												mobilization capacity of G-CSF (CD34+ cells; in combination with G-CSF in mice): significantly improves; mobilization of CD34+ cells (CD34+ cells; on its own): adequately
CCCCCCOC(=O)NC(=N)c1ccc(NCc2nc3cc(C(=O)N(CCC(=O)OCC)c4ccccn4)ccc3n2C)cc1 [Dabigatran, Dabigatran etexilate, reference compound]												G-CSF induced splenomegaly (C57BL mice; in conjunction with G-CSF 250 μg per kg per day s.c. for 7 days, Dabigatran etexilate 30 mg/kg orally daily, FIG. 1): marked enhancement
pal-RCLSSSAVANRS (Palmitoyl-RCLSSSAVANRS) [PAR1 antagonist]	50.57 ± 4.36	3.99 ± 2.42	2.96 ± 1.18	39.59 ± 3.41	significantly enhanced	15.3	more	13.42 ± 5	38.26 ± 5.31	34.40 ± 5.16	2.28 ± 0.46	Lin−Kit+Sca+ stem cell number in the blood and the spleen (Lin−Kit+Sca+ stem cell; co-treatment with G-CSF): highest increase; Lin−Kit+Sca+ stem cell numbers in the bone marrow (Lin−Kit+Sca+ stem cell; co-treatment with G-CSF): clearly enhanced; Lin−Kit+Sca+ stem cells numbers in the blood and especially in the BM (Lin−Kit+Sca+ stem cell; without G-CSF treatment): marked enhancement
pal-SGRRYGHALR (Palmitoyl-SGRRYGHALR) [PAR4 antagonist]	46.34 ± 4.23	4.41 ± 2.08	3.53 ± 1.49	39.63 ± 3.52	significantly enhanced	6.4	more	16.16 ± 7.26	50.58 ± 9.74	41.06 ± 12.93	2.93 ± 1.54	B cell numbers in the spleen (spleen cells; summary of Table 1): reduced; B cell numbers in the BM (bone marrow (BM) cells; Table 2): reduced
zymosan												time to mobilize HSPC (HSPC): ≤ 1 h
G-CSF: recombinant human G-CSF (Neupogen, Amgen) (protein, UniProt P09919 31-207, looked up, filgrastim) Granulocyte …: TPLGPASSLPQSFLLKCLEQVRKIQGDGAALQEKLVSECATYKLCHPEELVLLGHSLGIPWAPLSSCPSQALQLAGCLSQLHSGLFLYQGLLQALEGISPELGPTLDTLQLDVADFATTIWQQMEELGMAPALQPTQGAMPAFASAFQRRAGGVLVASHLQSFLEVSYRVLRHLAQP	47.37 ± 1.33	10.21 ± 2.69	8.16 ± 2.07	34.16 ± 3.17				3.18 ± 1.01	77.06 ± 7.38	74.37 ± 7.79	0.98 ± 0.85	number of granulocytes and macrophages in the spleen (spleen cells; after G-CSF treatment, summary of Table 1): marked elevation; enhancement of spleen colonies ([1]; Factor VIII knock out (KO) mice, upon treatment with G-CSF): 15.9 fold; mobilization of progenitors (CFU/spleen), enhancement as compared to non-treated mice ([1]; G-CSF treatment alone, 7 days, C57BL mice, FIG. 3): 2.8 fold; number of granulocytes and macrophages in the BM (bone marrow (BM) cells; after G-CSF treatment, Table 2): marked elevation; hematopoietic stem cell (HSC) mobilization and splenomegaly (C57BL/6 mice): induced
